# Results as given in article PMC10630888, “Nuclear ERK1/2 signaling potentiation enhances neuroprotection and cognition via Importinα1/KPNA2” (EMBO Molecular Medicine, 2023).
# Values joined by “and” are separate entries in the source; they are usually repeats but may differ in a detail not shown here. Identical values can stand only once.
# How the values were obtained:
# p-ERK = assay: Striatal p-ERK immunohistochemistry 1 h after single injection; assay type: in vivo, mouse; details: single injection 20 mg/kg i.p., individual mice
# Experimental: Immunohistochemistry was performed as described in Papale et al ([2016]). Briefly, 1 h after blocking in 5% normal goat serum and 0.1% Triton X‐100 solution, free‐floating sections were incubated overnight at 4°C with one of the following primary antibodies: anti‐phospho‐p44/42 MAP kinase (Thr202/Tyr204) (1:200, Cell Signaling Technology #9101), anti‐phospho–Elk‐1 (Ser383) (1:100, Cell Signaling #9181), anti‐phospho‐Kv4.2 (Thr607)‐R (1:100, Santa Cruz sc22254‐R), anti‐phospho‐MSK‐1 (1:100 Cell Signaling Technology #9595), anti‐phospho‐MEK1/2 (Ser218/222) (1:100, sc‐7995 Santa Cruz Biotechnology), c‐Fos (1:100, sc‐52 Santa Cruz Biotechnology), tyrosine Hydroxylase (monoclonal 1:1,000, Sigma Aldrich, Italy) and anti‐DARPP‐32 (H3) (1:100, Santa Cruz Biotechnology, #sc‐271111) overnight at 4°C. Sections were then incubated with biotinylated goat anti‐rabbit IgG (1:200, Vector Laboratories) or biotinylated goat anti‐mouse (1:200, Vector Laboratories) for 2 h. The classic avidin‐peroxidase complex (ABC, Vector, UK) protocol was applied, using 3,3′‐diaminobenzidine (DAB, Sigma) as a chromogen.
# For in vivo immunohistochemistry experiments, images were acquired from the dorsal striatum using a Leica DM IRB microscope under a 20× objective. The number of p‐ERK, p‐MSK‐1, p‐ELK, p‐MEK‐1, p‐VG K+, c‐Fos, and DARPP‐32 positive cells was counted in 2–3 consecutive sections per mouse, bilaterally and averaged across the sections using the ImageJ software by a blind investigator to the condition. Estimation of nigral cell loss was assessed by quantifying the number of TH‐immunopositive neurons of the SNc in 360 μm‐spaced sections for each animal.
# [1] = tested on: p-ERK1/2 in DARPP-32+ neurons; assay: p-ERK1/2 in DARPP-32+ iPSC-derived HD MSNs; assay type: cell-based, human; details: for p-ERK1/2 in DARPP-32+ neurons (Fig 5 panel e): individual replicates
# Experimental: The human induced pluripotent stem cell line CS09iHD109‐n1 (herein referred to as Q109N1) was originally generated from a human fibroblast line ND39258 (RRID:CVCL_ZC78) with an expanded HTT allele initially containing 109 pure CAG trinucleotides, and the isogenic control lines used were derived by CRISPR gene‐edit to reduce the CAG repeat length to 20 repeats (Mattis et al, [2015]). IPSCS were cultured on hESC‐qualified Matrigel (Corning) in E8‐Flex medium (Thermo Fisher) and passaged with RelesR (Stem Cell Technologies) according to the manufacturer's instructions. For neural differentiation iPSCS were grown to 70% confluency and then treated with 10 μM Y‐27632 (Tocris) for 1 h before harvesting by dissociation to a single cell suspension using accutase (Sigma). IPSCs were replated onto fresh Matrigel‐coated plates at a split ratio of 1:2, in E8‐Flex medium containing 10 μM Y‐27632. After overnight culture, IPSCs at 80–90% confluency were washed with PBS pH 7.4 (Gibco) and then switched to neural induction medium (Advanced DMEM/F12 (1:1) supplemented with 2 mM GlutamaxTM (Gibco), 2% Neurobrew without vitamin A (Miltenyi), 10 μM SB431542, 1 μM LDN 193189 (both Stem Cell Technologies), and 1.5 μM IWR1 (Tocris)). Medium was changed daily until day 8, when cells were passaged 1:2 by cell dissociation with Accutase for 5 min at 37°C and replated on Matrigel® coated plates in LIA medium containing (Advanced DMEM/F12 (1:1) supplemented with 2 mM GlutamaxTM, 2% Neurobrew without vitamin A, 0.2 μM LDN 193189, 1.5 μM IWR1, and 20 ng/ml Activin A (Peprotech)). At day 16, cells were plated for neuronal differentiation according to (Telezhkin et al, [2016]). […]
# Images were acquired using a confocal microscope (Zeiss LSM710) under a 20× objective and analyzed with ImageJ software.
sequence,measurement,setting,value
"GRKKRRQRRRPPQGGGGGEPRRTEGVGPGVPGEVEMVKGQPFDV [RB5, six D-amino acids, acetylated N-terminus]",p-ERK positive cells in striatum,p-ERK; ERK1+/+ (WT) mice,enhanced pERK and pAcH3 in WT
same,p-ERK positive cells in striatum,p-ERK; ERK1-/- mice,not in ERK1 KO mice
same,p-ERK positive cells in striatum,p-ERK; 1 h,greatly enhanced striatal ERK phosphorylation
same,p-ERK1/2 in DARPP-32+ neurons (Fig 5 panel e),[1]; CTR iPSC-derived MSNs,32.3403 and 42.5 and 40 and 34.7652 and 35.2993
same,p-ERK1/2 in DARPP-32+ neurons,"[1]; HD and isogenic control iPSC-derived MSNs, 50 μM, 30 min",upregulated
same,p-ERK1/2 in DARPP-32+ neurons (Fig 5 panel e),[1]; HD iPSC-derived MSNs,36.3889 and 24.1289 and 36.2319 and 31.1704 and 41.2043 and 24.6269
